Reference: patent US20250179078A1, “INHIBITORS OF NLRP3” (PTC THERAPEUTICS, INC., priority 2022, published 2025)

Target: T1, NLRP3 (Homo sapiens, UniProt Q96P20)
T1 construct: host or cells: THP-1 cells differentiated with PMA
Assay: IL-1β Secretion Assay (NLRP3-dependent IL1β secretion in THP1 cells)
Format: cell-based
Settings: PMA-differentiated THP-1 cells; compounds incubated 20 h; 2.5 μM Nigericin 3 h; HTRF IL-1β readout; read-out: IC50 IL-1β Inhibition
Method in brief: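 IL-1β in conditioned media, measured by HTRF after 3 h 2.5 μM nigericin stimulation, gave % inhibition fitted logistically for IC50. Before that, PMA-differentiated (100 ng/mL, 24 h) THP-1 cells were preincubated 20 h with 7 compound concentrations (3-fold serial, DMSO 1:200).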

T1 sequence (Q96P20 whole entry): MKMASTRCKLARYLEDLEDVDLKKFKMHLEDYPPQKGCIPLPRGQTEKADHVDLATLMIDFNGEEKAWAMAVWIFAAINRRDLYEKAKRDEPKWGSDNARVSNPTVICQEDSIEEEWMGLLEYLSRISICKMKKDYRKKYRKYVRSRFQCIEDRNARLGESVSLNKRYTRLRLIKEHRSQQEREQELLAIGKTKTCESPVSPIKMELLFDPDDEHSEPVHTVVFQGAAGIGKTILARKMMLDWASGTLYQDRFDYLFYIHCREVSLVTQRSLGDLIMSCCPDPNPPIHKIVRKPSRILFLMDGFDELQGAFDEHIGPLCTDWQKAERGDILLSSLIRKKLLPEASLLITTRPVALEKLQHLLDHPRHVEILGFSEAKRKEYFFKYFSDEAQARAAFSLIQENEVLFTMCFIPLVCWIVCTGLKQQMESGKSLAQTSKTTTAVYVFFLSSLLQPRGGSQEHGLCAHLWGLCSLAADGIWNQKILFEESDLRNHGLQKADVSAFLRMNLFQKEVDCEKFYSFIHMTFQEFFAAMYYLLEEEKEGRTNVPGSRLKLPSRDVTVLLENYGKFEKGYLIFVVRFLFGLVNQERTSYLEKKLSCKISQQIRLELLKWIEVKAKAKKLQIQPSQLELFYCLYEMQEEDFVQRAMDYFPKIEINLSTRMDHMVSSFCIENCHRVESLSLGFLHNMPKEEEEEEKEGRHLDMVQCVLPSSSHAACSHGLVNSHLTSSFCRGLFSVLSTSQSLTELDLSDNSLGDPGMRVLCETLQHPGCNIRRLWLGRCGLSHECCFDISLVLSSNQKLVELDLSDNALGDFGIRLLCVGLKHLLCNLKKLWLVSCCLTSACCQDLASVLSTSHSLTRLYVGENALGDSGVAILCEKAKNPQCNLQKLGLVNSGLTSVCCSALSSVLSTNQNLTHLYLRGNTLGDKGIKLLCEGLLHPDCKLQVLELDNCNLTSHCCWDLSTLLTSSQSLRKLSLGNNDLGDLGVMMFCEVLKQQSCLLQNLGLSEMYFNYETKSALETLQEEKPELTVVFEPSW

Row | SMILES | IC50 [nM]
1 | COc1ccc(-c2nnc(NC3CC(C(C)(C)O)C3)n3cncc23)c(OC(F)(F)F)c1 (stereo not drawn) [Compound 338, 2-[3-({1-[4-methoxy-2-(trifluoromethoxy)phenyl]imidazo[1,5-d][1,2,4]triazin-4-yl}amino)cyclobutyl]propan-2-ol] | 100 to 300
2 | Cc1ccc(-c2nnc(N[C@@H]3CCCC[C@H]3O)n3cncc23)c(CC(F)(F)F)c1 [Compound 286, (1R,2R)-2-({1-[4-methyl-2-(2,2,2-trifluoroethyl)phenyl]imidazo[1,5-d][1,2,4]triazin-4-yl}amino)cyclohexan-1-ol] | 1 to 10
3 | FC(F)(F)Cc1cc(C(F)(F)F)ccc1-c1nnc(Nc2cc[nH]n2)n2cccc12 [Compound 97, N-(1H-pyrazol-3-yl)-1-[2-(2,2,2-trifluoroethyl)-4-(trifluoromethyl)phenyl]pyrrolo[1,2-d][1,2,4]triazin-4-amine] | 10 to 100
4 | COc1ccc(-c2nnc(N[C@@H]3CCCC[C@H]3O)n3cc(C)cc23)c(OC(F)(F)F)c1 [Compound 163, (1R,2R)-2-({1-[4-methoxy-2-(trifluoromethoxy)phenyl]-7-methylpyrrolo[1,2-d][1,2,4]triazin-4-yl}amino)cyclohexan-1-ol] | 10 to 100
5 | COc1ccc(-c2nnc(N[C@@H]3CCC[C@H]3O)n3cncc23)c(OC(F)(F)F)c1 [Compound 221, (1R,2R)-2-({1-[4-methoxy-2-(trifluoromethoxy)phenyl]imidazo[1,5-d][1,2,4]triazin-4-yl}amino)cyclopentan-1-ol] | 10 to 100
6 | COc1ccc(-c2nnc(N[C@@H]3CCCC[C@H]3O)n3cncc23)c(C(F)(F)C(F)(F)F)c1 [Compound 316, (1R,2R)-2-({1-[4-methoxy-2-(pentafluoroethyl)phenyl]imidazo[1,5-d][1,2,4]triazin-4-yl}amino)cyclohexan-1-ol] | 10 to 100
7 | Cc1cc2c(-c3ccc(C(F)(F)F)cc3C(F)(F)F)nnc(N[C@@H]3CCCC[C@H]3O)n2c1 [Compound 160, (1R,2R)-2-({1-[2,4-bis(trifluoromethyl)phenyl]-7-methylpyrrolo[1,2-d][1,2,4]triazin-4-yl}amino)cyclohexan-1-ol] | 1 to 10
8 | COc1ccc(-c2nnc(N[C@@H]3CCCN(C)C3)n3ccc(F)c23)c(OC(F)F)c1 [Compound 55, 1-[2-(difluoromethoxy)-4-methoxyphenyl]-8-fluoro-N-[(3R)-1-methylpiperidin-3-yl]pyrrolo[1,2-d][1,2,4]triazin-4-amine] | 10 to 100
9 | COc1ccc(-c2nnc(NC(C)c3cccnc3)n3cncc23)c(OC(F)(F)F)c1 (single isomer, unassigned) [Compound 308] | 100 to 300
10 | CN1CC[C@@H](O)[C@@H](Nc2nnc(-c3ccc(C(F)(F)F)cc3CC(F)(F)F)c3cncn23)C1 [Compound 289, (3S,4R)-1-methyl-3-({1-[2-(2,2,2-trifluoroethyl)-4-(trifluoromethyl)phenyl]imidazo[1,5-d][1,2,4]triazin-4-yl}amino)piperidin-4-ol] | 1 to 10
11 | COc1ccc(-c2nnc(N[C@@H]3CCCN(C)C3)n3cccc23)c(C2CC2)c1 [Compound 27, 1-(2-cyclopropyl-4-methoxyphenyl)-N-[(3R)-1-methylpiperidin-3-yl]pyrrolo[1,2-d][1,2,4]triazin-4-amine] | 1 to 10
12 | CCN1CCC[C@@H](Nc2nnc(-c3ccc(OC)cc3C(F)(F)F)c3c(F)ccn23)C1 [Compound 17, N-[(3R)-1-ethylpiperidin-3-yl]-8-fluoro-1-[4-methoxy-2-(trifluoromethyl)phenyl]pyrrolo[1,2-d][1,2,4]triazin-4-amine] | 1 to 10
13 | FC(F)(F)Cc1cc(C(F)(F)F)ccc1-c1nnc(Nc2cc[nH]n2)n2cncc12 [Compound 267, N-(1H-pyrazol-3-yl)-1-[2-(2,2,2-trifluoroethyl)-4-(trifluoromethyl)phenyl]imidazo[1,5-d][1,2,4]triazin-4-amine] | 1 to 10
14 | CN1CCC[C@@H](Nc2nnc(-c3ccc(C4CC4)cc3CC(F)(F)F)c3cncn23)C1 [Compound 352, 1-[4-cyclopropyl-2-(2,2,2-trifluoroethyl)phenyl]-N-[(3R)-1-methylpiperidin-3-yl]imidazo[1,5-d][1,2,4]triazin-4-amine] | 1 to 10
15 | O[C@@H]1COCC[C@H]1Nc1nnc(-c2ccc(C(F)(F)F)cc2C2CC2)c2cncn12 [Compound 334, (3S,4R)-4-({1-[2-cyclopropyl-4-(trifluoromethyl)phenyl]imidazo[1,5-d][1,2,4]triazin-4-yl}amino)oxan-3-ol] | 10 to 100
16 | C[C@]1(O)C[C@@H](Nc2nnc(-c3ccc(Cl)cc3OC(F)F)c3cncn23)C1 [Compound 194, (1s,3s)-3-({1-[4-chloro-2-(difluoromethoxy)phenyl]imidazo[1,5-d][1,2,4]triazin-4-yl}amino)-1-methylcyclobutan-1-ol] | 1 to 10
17 | COc1ccc(-c2nnc(N[C@@H]3CCOC[C@H]3O)n3cncc23)c(OC(F)(F)F)c1 [Compound 292, (3S,4R)-4-({1-[4-methoxy-2-(trifluoromethoxy)phenyl]imidazo[1,5-d][1,2,4]triazin-4-yl}amino)oxan-3-ol] | 10 to 100
18 | CCN1CCC[C@@H](Nc2nnc(-c3ccc(C(F)(F)F)cc3Cl)c3cc(C)nn23)C1 [Compound 375, 4-[2-chloro-4-(trifluoromethyl)phenyl]-N-[(3R)-1-ethylpiperidin-3-yl]-2-methylpyrazolo[1,5-d][1,2,4]triazin-7-amine] | 1 to 10
19 | C[C@]1(O)C[C@@H](Nc2nnc(-c3ccc(OC(F)F)cc3OC(F)(F)F)c3cccn23)C1 [Compound 88, (1s,3s)-3-({1-[4-(difluoromethoxy)-2-(trifluoromethoxy)phenyl]pyrrolo[1,2-d][1,2,4]triazin-4-yl}amino)-1-methylcyclobutan-1-ol] | 1 to 10
20 | O[C@H]1CCCC[C@@H]1Nc1nnc(-c2ccc(C(F)(F)F)cc2OC(F)(F)F)c2cncn12 [Compound 290] | 10 to 100
21 | COc1ccc(-c2nnc(NC34CC(CO)(C3)C4)n3cccc23)c(OC(F)(F)F)c1 [Compound 94, [3-({1-[4-methoxy-2-(trifluoromethoxy)phenyl]pyrrolo[1,2-d][1,2,4]triazin-4-yl}amino)bicyclo[1.1.1]pentan-1-yl]methanol] | 10 to 100
22 | COc1ccc(-c2nnc(NC[C@@H]3CCCN3C)n3cccc23)c(OC(F)(F)F)c1 [Compound 74, 1-[4-methoxy-2-(trifluoromethoxy)phenyl]-N-{[(2S)-1-methylpyrrolidin-2-yl]methyl}pyrrolo[1,2-d][1,2,4]triazin-4-amine] | 10 to 100
23 | CCN1CCC[C@@H](Nc2nnc(-c3ccc(C#N)cc3OC(F)F)c3cc(C)nn23)C1 [Compound 378, 3-(difluoromethoxy)-4-(7-{[(3R)-1-ethylpiperidin-3-yl]amino}-2-methylpyrazolo[1,5-d][1,2,4]triazin-4-yl)benzonitrile] | 1 to 10

The next lines start with the values.

Row | IC50 [nM] | SMILES
24 | 1 to 10 | Cc1ccc(-c2nnc(N[C@@H]3CCCC[C@@H]3O)n3cccc23)c(OC(F)F)c1 [Compound 137, (1S,2R)-2-({1-[2-(difluoromethoxy)-4-methylphenyl]pyrrolo[1,2-d][1,2,4]triazin-4-yl}amino)cyclohexan-1-ol]
25 | 1 to 10 | CCC(=O)c1ccc(-c2nnc(N[C@@H]3CCCN(C)C3)n3cccc23)c(OC(F)F)c1 [Compound 95, 1-[3-(difluoromethoxy)-4-(4-{[(3R)-1-methylpiperidin-3-yl]amino}pyrrolo[1,2-d][1,2,4]triazin-1-yl)phenyl]propan-1-one]
26 | 1 to 10 | CC(Nc1nnc(-c2ccc(C(F)(F)F)cc2C(F)(F)F)c2ccnn12)c1cccc(O)c1 (stereo not drawn) [Compound 395, 3-[1-({4-[2,4-bis(trifluoromethyl)phenyl]pyrazolo[1,5-d][1,2,4]triazin-7-yl}amino)ethyl]phenol]
27 | 1 to 10 | C[C@]1(O)C[C@@H](Nc2nnc(-c3ccc(C(F)(F)F)cc3CC(F)(F)F)c3cccn23)C1 [Compound 41, (1s,3s)-1-methyl-3-({1-[2-(2,2,2-trifluoroethyl)-4-(trifluoromethyl)phenyl]pyrrolo[1,2-d][1,2,4]triazin-4-yl}amino)cyclobutan-1-ol]
28 | < 1 | CCN1CCC[C@@H](Nc2nnc(-c3ccc(C(F)(F)F)cc3C(F)(F)F)c3cncn23)C1 [Compound 271, 1-[2,4-bis(trifluoromethyl)phenyl]-N-[(3R)-1-ethylpiperidin-3-yl]imidazo[1,5-d][1,2,4]triazin-4-amine]
29 | < 1 | CCN1CC[C@@H](O)[C@@H](Nc2nnc(-c3ccc(OC)cc3OC(F)(F)F)c3cc(C)cn23)C1 [Compound 135, (3S,4R)-1-ethyl-3-({1-[4-methoxy-2-(trifluoromethoxy)phenyl]-7-methylpyrrolo[1,2-d][1,2,4]triazin-4-yl}amino)piperidin-4-ol]
30 | < 1 | C[C@]1(O)C[C@@H](Nc2nnc(-c3ccc(C4CC4)cc3CC(F)(F)F)c3cncn23)C1 [Compound 348, (1s,3s)-3-({1-[4-cyclopropyl-2-(2,2,2-trifluoroethyl)phenyl]imidazo[1,5-d][1,2,4]triazin-4-yl}amino)-1-methylcyclobutan-1-ol]
31 | < 1 | O[C@@H]1CCCC[C@H]1Nc1nnc(-c2ccc(C(F)(F)F)cc2CC(F)(F)F)c2cncn12 [Compound 282, (1R,2R)-2-({1-[2-(2,2,2-trifluoroethyl)-4-(trifluoromethyl)phenyl]imidazo[1,5-d][1,2,4]triazin-4-yl}amino)cyclohexan-1-ol]
32 | < 1 | CN1CC[C@@H](O)[C@@H](Nc2nnc(-c3ccc(OC(F)F)cc3OC(F)(F)F)c3cccn23)C1 [Compound 170, (3S,4R)-3-({1-[4-(difluoromethoxy)-2-(trifluoromethoxy)phenyl]pyrrolo[1,2-d][1,2,4]triazin-4-yl}amino)-1-methylpiperidin-4-ol]
33 | < 1 | COc1ccc(-c2nnc(NC(C)c3cccc(O)c3)n3cncc23)c(CC(F)(F)F)c1 (stereo not drawn) [Compound 303, 3-[1-({1-[4-methoxy-2-(2,2,2-trifluoroethyl)phenyl]imidazo[1,5-d][1,2,4]triazin-4-yl}amino)ethyl]phenol]
